Source: patent US20220169632A1, “METHODS AND MATERIALS FOR INCREASING OR MAINTAINING NICOTINAMIDE MONONUCLEOTIDE ADENYLYL TRANSFERASE-2 (NMNAT2) POLYPEPTIDE LEVELS” (University of Pittsburgh - Of the Commonwealth System of …, priority 2019, published 2022)

tested on: NMNAT2; assay: NMNAT2-Hibit nano-luciferase activity in transfected U87MG cells, 25 μM, 24 hours; assay type: cell-based; conditions: NMNAT2-Hibit luc plasmid, 24 hours (Table B)
Description: Selected compounds were tested in vitro. Briefly, U87MG cells were transfected with NMNAT2-Hibit luc plasmid. Cells were treated with a test compound at 25 μM for 24 hours. Cells were then collected and assayed for nano-luciferase activity.

Structure (SMILES) | B: compound efficacy (IC50) for NMNAT2 activation; increase in NMNAT2 luciferase activity
O=C(NCc1noc2ccccc12)Nc1cccc(Cl)c1 [Compound 181001] | + (“+” <20% increase in NMNAT2 luciferase activity.)
O=C(NCc1noc2ccccc12)Nc1cccc(C(F)(F)F)c1 [Compound 181002] | + (“+” <20% increase in NMNAT2 luciferase activity.)
Cc1ccc(NC(=O)NCc2noc3ccccc23)c(Br)c1 [Compound 181003] | + (“+” <20% increase in NMNAT2 luciferase activity.)
Cc1ccc(NC(=O)NCc2noc3ccccc23)cc1F [Compound 181004] | + (“+” <20% increase in NMNAT2 luciferase activity.)
O=C(NCc1noc2ccccc12)Nc1ccc(F)c(Cl)c1 [Compound 181005] | + (“+” <20% increase in NMNAT2 luciferase activity.)
COc1ccc(NC(=O)NCc2noc3ccccc23)cc1Cl [Compound 181006] | + (“+” <20% increase in NMNAT2 luciferase activity.)
Cc1cc(Br)ccc1NC(=O)NCc1noc2ccccc12 [Compound 181007] | + (“+” <20% increase in NMNAT2 luciferase activity.)
COc1ccccc1CNC(=O)NCc1noc2ccccc12 [Compound 181008] | + (“+” <20% increase in NMNAT2 luciferase activity.)
CCc1ccc(NC(=O)NCc2noc3ccccc23)cc1 [Compound 181009] | + (“+” <20% increase in NMNAT2 luciferase activity.)
CC(C)c1ccc(NC(=O)NCc2noc3ccccc23)cc1 [Compound 181010] | + (“+” <20% increase in NMNAT2 luciferase activity.)
Cc1ccc(Cl)cc1N(C)C(=O)NCc1noc2ccccc12 [Compound 181011] | + (“+” <20% increase in NMNAT2 luciferase activity.)
Cc1ccccc1N(C)C(=O)NCc1noc2ccccc12 [Compound 181012] | + (“+” <20% increase in NMNAT2 luciferase activity.)
CN(C(=O)NCc1noc2ccccc12)c1cccc(Cl)c1 [Compound 181013] | + (“+” <20% increase in NMNAT2 luciferase activity.)
Cc1ccc(N(C)C(=O)NCc2noc3ccccc23)cc1C [Compound 181014] | + (“+” <20% increase in NMNAT2 luciferase activity.)
CN(C(=O)NCc1noc2ccccc12)c1ccc(Br)cc1 [Compound 181015] | + (“+” <20% increase in NMNAT2 luciferase activity.)
Cc1ccc(C)c(N(C)C(=O)NCc2noc3ccccc23)c1 [Compound 181016] | + (“+” <20% increase in NMNAT2 luciferase activity.)
CN(C(=O)NCc1noc2ccccc12)c1ccccc1Cl [Compound 181017] | + (“+” <20% increase in NMNAT2 luciferase activity.)
Cc1cccc(N(C)C(=O)NCc2noc3ccccc23)c1 [Compound 181018] | + (“+” <20% increase in NMNAT2 luciferase activity.)
COc1ccc(CNC(=O)NCc2noc3ccccc23)cc1 [Compound 181019] | + (“+” <20% increase in NMNAT2 luciferase activity.)
CCOc1ccccc1CNC(=O)NCc1noc2ccccc12 [Compound 181020] | + (“+” <20% increase in NMNAT2 luciferase activity.)
Cc1ccc(NC(=O)NCc2noc3ccccc23)c(Cl)c1 [Compound 181021] | + (“+” <20% increase in NMNAT2 luciferase activity.)
Cc1ccc(CNC(=O)NCc2noc3ccccc23)cc1 [Compound 181022] | + (“+” <20% increase in NMNAT2 luciferase activity.)

tested on: NMNAT2; assay: NMNAT2-Hibit nano-luciferase activity in stably transfected U87MG cells, various concentrations, 24 hours; assay type: cell-based; conditions: U87MG cells stably transfected with NMNAT2-Hibit luc plasmid
Description: Selected compounds were tested in vitro. U87MG cells were stably transfected with NMNAT2-Hibit luc plasmid. Cells were treated with a test compound at various concentrations for 24 hours. Cells were then collected and assayed for nano-luciferase activity.

Structure (SMILES) | E: compound efficacy for NMNAT2 activation (concentration giving >25% increase in NMNAT2 luciferase activity)
CCCCN(CC)Cc1ccc(CNC(=O)C2CCCc3c2c2ccccc2n3Cc2cccc(F)c2)o1 (stereo not drawn) [BC20381] | ++ (“++” >25% increase in NMNAT2 luciferase activity at >1 μM ≤25 μM.)
O=C(C1CCCc2c1c1ccccc1n2Cc1cccc(F)c1)N(CCCN1CCOCC1)Cc1ccco1 (stereo not drawn) [BC20382] | ++ (“++” >25% increase in NMNAT2 luciferase activity at >1 μM ≤25 μM.)
Cc1ccc(Cn2c3c(c4ccccc42)C(C(=O)NCc2ccco2)CCC3)cc1 (stereo not drawn) [BC20383] | + (“+” >25% increase in NMNAT2 luciferase activity at >25 μM.)
Cc1ccc(Cn2c3c(c4ccccc42)C(C(=O)NCC2CCCO2)CCC3)cc1 (stereo not drawn) [BC20384] | + (“+” >25% increase in NMNAT2 luciferase activity at >25 μM.)
Cc1ccc(Cn2c3c(c4ccccc42)C(C(=O)NCc2ccccc2F)CCC3)cc1 (stereo not drawn) [BC20385] | ++ (“++” >25% increase in NMNAT2 luciferase activity at >1 μM ≤25 μM.)
Cc1ccc(Cn2c3c(c4ccccc42)C(C(=O)NCc2cccc(C)c2)CCC3)cc1 (stereo not drawn) [BC20386] | ++ (“++” >25% increase in NMNAT2 luciferase activity at >1 μM ≤25 μM.)
COc1cccc(CNC(=O)C2CCCc3c2c2ccccc2n3Cc2ccc(C)cc2)c1 (stereo not drawn) [BC20387] | + (“+” >25% increase in NMNAT2 luciferase activity at >25 μM.)
Cc1ccc(Cn2c3c(c4ccccc42)C(C(=O)NCCc2ccccc2)CCC3)cc1 (stereo not drawn) [BC20388] | + (“+” >25% increase in NMNAT2 luciferase activity at >25 μM.)
Cc1ccc(Cn2c3c(c4ccccc42)C(C(=O)NCc2cccnc2)CCC3)cc1 (stereo not drawn) [BC20389] | ++ (“++” >25% increase in NMNAT2 luciferase activity at >1 μM ≤25 μM.)
Cc1ccc(Cn2c3c(c4ccccc42)C(C(=O)NCc2ccncc2)CCC3)cc1 (stereo not drawn) [BC20390] | + (“+” >25% increase in NMNAT2 luciferase activity at >25 μM.)
CCCCN(CC)Cc1ccc(CNC(=O)C2CCCc3c2c2ccccc2n3Cc2ccc(C)cc2)o1 (stereo not drawn) [BC20391] | ++ (“++” >25% increase in NMNAT2 luciferase activity at >1 μM ≤25 μM.)
Cc1ccc(C)c(Cn2c(C(F)F)c(CCC(=O)NCC3CCCO3)c3ccccc32)c1 (stereo not drawn) [BC20392] | + (“+” >25% increase in NMNAT2 luciferase activity at >25 μM.)
Cc1ccc(C)c(Cn2c(C(F)F)c(CCC(=O)NCc3ccccc3F)c3ccccc32)c1 [BC20393] | ++ (“++” >25% increase in NMNAT2 luciferase activity at >1 μM ≤25 μM.)
Cc1ccc(C)c(Cn2c(C(F)F)c(CCC(=O)NCc3cccc(F)c3)c3ccccc32)c1 [BC20394] | + (“+” >25% increase in NMNAT2 luciferase activity at >25 μM.)
Cc1ccc(C)c(Cn2c(C(F)F)c(CCC(=O)NCc3ccccc3C)c3ccccc32)c1 [BC20395] | ++ (“++” >25% increase in NMNAT2 luciferase activity at >1 μM ≤25 μM.)
Cc1cccc(CNC(=O)CCc2c(C(F)F)n(Cc3cc(C)ccc3C)c3ccccc23)c1 [BC20396] | ++ (“++” >25% increase in NMNAT2 luciferase activity at >1 μM ≤25 μM.)
COc1ccccc1CNC(=O)CCc1c(C(F)F)n(Cc2cc(C)ccc2C)c2ccccc12 [BC20397] | + (“+” >25% increase in NMNAT2 luciferase activity at >25 μM.)
COc1cccc(CNC(=O)CCc2c(C(F)F)n(Cc3cc(C)ccc3C)c3ccccc23)c1 [BC20398] | ++ (“++” >25% increase in NMNAT2 luciferase activity at >1 μM ≤25 μM.)
Cc1ccc(C)c(Cn2c(C(F)F)c(CCC(=O)N(CCCN3CCOCC3)Cc3ccco3)c3ccccc32)c1 [BC20399] | ++ (“++” >25% increase in NMNAT2 luciferase activity at >1 μM ≤25 μM.)
Cc1ccc(C)c(Cn2c(C(F)F)c(CCC(=O)N3CCN(C(=O)c4ccco4)CC3)c3ccccc32)c1 [BC20400] | ++ (“++” >25% increase in NMNAT2 luciferase activity at >1 μM ≤25 μM.)
Cc1ccc(C)c(Cn2c(C(F)F)c(CCC(=O)NC(C)Cc3ccco3)c3ccccc32)c1 (stereo not drawn) [BC20401] | ++ (“++” >25% increase in NMNAT2 luciferase activity at >1 μM ≤25 μM.)
Cc1ccc(C)c(Cn2c(C(F)F)c(CCC(=O)NCCc3ccccc3)c3ccccc32)c1 [BC20402] | ++ (“++” >25% increase in NMNAT2 luciferase activity at >1 μM ≤25 μM.)
Cc1ccc(C)c(Cn2c(C(F)F)c(CCC(=O)NCc3cccnc3)c3ccccc32)c1 [BC20403] | + (“+” >25% increase in NMNAT2 luciferase activity at >25 μM.)
Cc1ccc(C)c(Cn2c(C(F)F)c(CCC(=O)NCc3ccncc3)c3ccccc32)c1 [BC20404] | ++ (“++” >25% increase in NMNAT2 luciferase activity at >1 μM ≤25 μM.)
Cc1ccc(C)c(Cn2c(C(F)F)c(C3CC(=O)Nc4cccc(C)c43)c3ccccc32)c1 (stereo not drawn) [BC20405] | ++ (“++” >25% increase in NMNAT2 luciferase activity at >1 μM ≤25 μM.)
CCCCN(CC)Cc1ccc(CNC(=O)CCc2c(C(F)F)n(Cc3cc(C)ccc3C)c3ccccc23)o1 [BC20406] | +++ (“+++” >25% increase in NMNAT2 luciferase activity at ≤1 μM.)
